Experimental data taken from the supplement of paper PMC11451515.

System: NOMO1
Experiment: cell viability relative to DMSO control; higher = less cytotoxic
Conditions: 48 h
Summary of the method: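 In 1536-well plates, 5 μl of leukemia cells were seeded per well: 500 cells/well for NOMO1 or SEM and 1000 cells/well for P12-Ichikawa. Each line had first been adapted for at least four passages in each medium. Library compounds in DMSO were pin-dosed at 11 threefold concentrations between 47 μM and 0.79 nM, and CellTiter-Glo One luminescence was read after 48 h at 37°C. Viability is a per-plate percentage relative to DMSO wells, with cell-free wells as background.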

[1] = HPLM + 10% dialyzed FBS, 0.000781 µM
[2] = HPLM + 10% dialyzed FBS, 0.00234 µM
[3] = HPLM + 10% dialyzed FBS, 0.00702 µM
[4] = HPLM + 10% dialyzed FBS, 0.0211 µM
[5] = HPLM + 10% dialyzed FBS, 0.0632 µM
[6] = HPLM + 10% dialyzed FBS, 0.19 µM
[7] = HPLM + 10% dialyzed FBS, 0.569 µM
[8] = HPLM + 10% dialyzed FBS, 1.71 µM
[9] = HPLM + 10% dialyzed FBS, 5.12 µM
[10] = HPLM + 10% dialyzed FBS, 15.4 µM
[11] = HPLM + 10% dialyzed FBS, 46.1 µM
[12] = RPMI 5 mM glucose + 10% FBS, 0.000781 µM
[13] = RPMI 5 mM glucose + 10% FBS, 0.00234 µM
[14] = RPMI 5 mM glucose + 10% FBS, 0.00702 µM
[15] = RPMI 5 mM glucose + 10% FBS, 0.0211 µM
[16] = RPMI 5 mM glucose + 10% FBS, 0.0632 µM
[17] = RPMI 5 mM glucose + 10% FBS, 0.19 µM
[18] = RPMI 5 mM glucose + 10% FBS, 0.569 µM
[19] = RPMI 5 mM glucose + 10% FBS, 1.71 µM
[20] = RPMI 5 mM glucose + 10% FBS, 5.12 µM
[21] = RPMI 5 mM glucose + 10% FBS, 15.4 µM
[22] = RPMI 5 mM glucose + 10% FBS, 46.1 µM
[23] = RPMI 5 mM glucose + 10% dialyzed FBS, 0.000781 µM
[24] = RPMI 5 mM glucose + 10% dialyzed FBS, 0.00234 µM
[25] = RPMI 5 mM glucose + 10% dialyzed FBS, 0.00702 µM
[26] = RPMI 5 mM glucose + 10% dialyzed FBS, 0.0211 µM
[27] = RPMI 5 mM glucose + 10% dialyzed FBS, 0.0632 µM
[28] = RPMI 5 mM glucose + 10% dialyzed FBS, 0.19 µM
[29] = RPMI 5 mM glucose + 10% dialyzed FBS, 0.569 µM
[30] = RPMI 5 mM glucose + 10% dialyzed FBS, 1.71 µM
[31] = RPMI 5 mM glucose + 10% dialyzed FBS, 5.12 µM
[32] = RPMI 5 mM glucose + 10% dialyzed FBS, 15.4 µM
[33] = RPMI 5 mM glucose + 10% dialyzed FBS, 46.1 µM

| SMILES | cell viability [1] [%] | cell viability [2] [%] | cell viability [3] [%] | cell viability [4] [%] | cell viability [5] [%] | cell viability [6] [%] | cell viability [7] [%] | cell viability [8] [%] | cell viability [9] [%] | cell viability [10] [%] | cell viability [11] [%] | cell viability [12] [%] | cell viability [13] [%] | cell viability [14] [%] | cell viability [15] [%] | cell viability [16] [%] | cell viability [17] [%] | cell viability [18] [%] | cell viability [19] [%] | cell viability [20] [%] | cell viability [21] [%] | cell viability [22] [%] | cell viability [23] [%] | cell viability [24] [%] | cell viability [25] [%] | cell viability [26] [%] | cell viability [27] [%] | cell viability [28] [%] | cell viability [29] [%] | cell viability [30] [%] | cell viability [31] [%] | cell viability [32] [%] | cell viability [33] [%] |
| --- | --- | --- | --- | --- | --- | --- | --- | --- | --- | --- | --- | --- | --- | --- | --- | --- | --- | --- | --- | --- | --- | --- | --- | --- | --- | --- | --- | --- | --- | --- | --- | --- | --- |
| CC(C)c1c(C(=O)Nc2ccccc2)c(-c2ccccc2)c(-c2ccc(F)cc2)n1CC[C@@H](O)C[C@@H](O)CC(=O)[O-] | 109 | 108 | 118 | 112 | 94.4 | 97.4 | 100 | 97.2 | 88.4 | 75.6 | 52.4 | 96.4 | 91.3 | 94.6 | 90.8 | 88.2 | 116 | 97.6 | 80.1 | 83.7 | 83.5 | 61.5 | 90.4 | 100 | 90.9 | 89.6 | 102 | 103 | 92.2 | 77.9 | 73.9 | 67.3 | 48.4 |
| CN1CCC(CC1)=C2C3=C(C=CC=C3)\C=C/C4=C2C=CC=C4 | 98.6 | 118 | 113 | 130 | 133 | 141 | 147 | 133 | 121 | 124 | 93.4 | – | – | – | – | – | – | – | – | – | – | – | – | – | – | – | – | – | – | – | – | – | – |
| COc1cc(OC)c(C(=O)CCCN2CCCC2)c(OC)c1 | – | – | – | – | – | – | – | – | – | – | – | 132 | 125 | 122 | 127 | 127 | 116 | 120 | 108 | 119 | 98.4 | 106 | – | – | – | – | – | – | – | – | – | – | – |
| COC(=O)Nc1nc2ccc([S+]([O-])c3ccccc3)cc2[nH]1 (stereo not given) | 96.8 | 106 | 119 | 110 | 101 | 119 | 121 | 113 | 101 | 97.9 | 66.7 | – | – | – | – | – | – | – | – | – | – | – | 113 | 123 | 120 | 131 | 136 | 137 | 123 | 134 | 130 | 116 | 94.8 |
| N#Cc1ccnc(N2C(=O)CC[C@H]2C(=O)N(c2cncc(F)c2)[C@H](C(=O)NC2CC(F)(F)C2)c2ccccc2Cl)c1 | 90.6 | 92.3 | 96.6 | 114 | 101 | 115 | 67.7 | 49 | 19.6 | 26.2 | 30.7 | 93.2 | 95.6 | 116 | 95.1 | 90.1 | 92 | 94.6 | 79.2 | 16.8 | 16.5 | 14.5 | 97.2 | 97.1 | 96.4 | 101 | 97.6 | 90.7 | 94.8 | 88.2 | 42.2 | 32.1 | 18.8 |
